From US20160051665A1, “INDUCTION OF IMMUNE RESPONSE” (priority 2010, published 2016)
Entries after “also recorded” stand apart in the source; their conditions may differ.

Assays:
[1] = observation of woodchucks for drug-related toxicity; type: in vivo, woodchuck; details: 100 mg/kg orally, weighed bi-weekly, observed daily
[2] = serum ALT, marker of hepatocellular injury, in woodchucks; type: in vivo, woodchuck
Procedure: All experimental procedures involving woodchucks were performed under protocols approved by the Cornell University Institutional Animal Care and Use Committee. Woodchucks were born to WHV-negative females in environmentally controlled laboratory animal facilities and inoculated at 3 days of age with 5 million infectious doses of a standardized WHV inoculum (23). Woodchucks were selected as chronic WHV carriers based on persistent detection of WHV surface antigen (WHsAg) and WHV DNA in serum prior to treatments. All animals were free of HCC at the beginning of the study as determined by hepatic ultrasound examination and normal serum activity of γ-glutamyl-transferase (GGT).
Twenty adult chronically infected woodchucks were stratified by age, sex, body weight, serum viral load, and serum GGT activity into four treatment groups of five animals each. Drug was administered orally at 100 mg/kg (in sterile water), chosen after an initial dose finding trial. […] Prior to alum adsorption, vaccine was tested in naïve, WHV-susceptible animals and no residual virus was detected. […]
Serum WHV DNA was measured quantitatively by dot blot hybridization (assay sensitivity, ≧1.0×10^7 WHV genome equivalents per ml [WHVge/ml]) (25). Serum WHsAg, antibodies to WHV core antigen (anti-WHc), and WHV surface antigen (anti-WHs) were determined with WHV-specific enzyme immunoassays (26). […]

[3] = tested on: woodchuck PBMCs; assay: PBMC proliferation assay (stimulation index) with PBMCs of treated woodchucks; type: in vivo
Procedure: T cell responses against WHY were determined using in vitro stimulators at concentrations optimal for cultures of woodchuck PBMCs (29, 30). Stimulators consisted of native 22-nm WHsAg (2 μg/ml), recombinant WHcAg (2 μg/ml), or synthetic peptides (10 μg/ml) corresponding to either native viral sequences or predicted N-de-glycosylated sequences (Table 1, below).
The in vitro proliferation assay using woodchuck PBMCs labeled dividing cells with [2-^3H]adenine (Amersham Pharmacia Biotech, Inc., Arlington Heights, Ill.). Woodchuck PBMCs were isolated from whole blood and stimulated as described (30, 31). Counts per minute of triplicate PBMC cultures were averaged and expressed as a stimulation index (SI) by dividing the average sample counts per minute in the presence of the stimulator by that observed in the absence of stimulator (six replicates). A SI value of ≧3.1 was considered to represent a positive, specific T-cell response.
Woodchucks chronically infected with WHV experienced significant immunological responses to envelope proteins following immunization with WHsAg-containing vaccines, especially in the context of low viral and antigen loads following treatment with an effective antiviral agent, 1-(2-fluoro-5-methyl-beta-L-arabinofuranosyl)-uracil (L-FMAU) (29, 35). […] Animals were scored as positive if cells proliferated above the cut-off value of 2: 3.1. […]

[4] = tested on: glucosidases; assay: glycan analysis of serum: tri-glucosylated glycans (Glu3); type: in vivo, woodchuck
Procedure: Sample preparation for glycan analysis was performed essentially as described (27). HPLC separation was performed using the Waters Alliance HPLC system with a Waters fluorescence detector, and quantified using the Millenium Chromatography Manager (Waters Corporation, Milford, Mass.). Tri-glucosylated structures were identified by comparison to known standards (27, 28).
In vivo, levels of circulating glycoproteins with N-glycans bearing three terminal glucose residues reflect the extent of glucosidase inhibition (11). […] Note that BuCas-treated animals that were negative for tri-glucosylated glycans at the 10-week time point were positive at one or more other time points (data not shown). No tri-glucosylated glycans were detected in any drug-naïve animals (Table 2).

CCCC(=O)O[C@H]1CN2CC[C@H](O)[C@@H]2[C@@H](O)[C@H]1O [BuCas, 6-O-butanoyl castanospermine]
drug-related toxicity [1]: no evidence of drug-related toxicity was seen | ALT, Av(range) ([2]; week 0 (baseline)): 7.4 (4-9) Units/L | ALT, Av(range) ([2]; week 10): 15.6 (10-22) Units/L | PBMC response to paired N-peptides versus D-peptides ([3]; glycosylation sequons at amino acids 4 and 146, from week 8 on, FIG. 4): responded more strongly to D-peptides versus N-peptides | PBMC proliferation in response to WHV HBs antigens ([3]; positive if SI ≧3.1, FIG. 3): resulted in proliferation in response to WHV HBs antigens; also recorded: stimulated cellular immunity to viral antigen | glycan processing (tri-glucosylated glycans in sera), in words ([4]; sera of treated woodchucks): impaired glycan processing | Glu3, % (tri-glucosylated glycans in serum) ([4]; week 10): .49 (0-.90) %
